From US4472305A, “Hexapeptide amides” (Sterling Drug Inc., priority 1983, dated 1984) come the findings set out here.

Where two headings read alike, the source gives them in different places. Non-standard residues stand in square brackets, D forms with d. Residues, ends and D or L forms follow the SMILES beside them. Phe(4-Cl) = N[C@@H](Cc1ccc(Cl)cc1)C(=O)O; dNMeW = CN[C@H](Cc1c[nH]c2ccccc12)C(=O)O; NMeF = CN[C@@H](Cc1ccccc1)C(=O)O; hPhe = N[C@@H](CCc1ccccc1)C(=O)O; NMeL = CN[C@@H](CC(C)C)C(=O)O; NMeNle = CCCC[C@H](NC)C(=O)O; NMeM = CN[C@@H](CCSC)C(=O)O; Nle = CCCC[C@H](N)C(=O)O; Sar = CNCC(=O)O

The test system of test [1] is longitudinal muscle of guinea pig terminal ileum. Description: Guinea pig ileum test (SP agonist and antagonist effect). The format is cell-based. To be noted: for Guinea Pig Ileum % Agonism (potency relative to SP): contraction of ileum longitudinal muscle strips, relative molar potency vs SP. The protocol: Strips of longitudinal muscle derived from terminal ileum of adult male guinea pigs (Charles River, 400-600 g.) are mounted in 5-ml. organ baths containing oxygenated Krebs solution containing 1 μM each of atropine and pyrilamine maintained at 30-33 C. and connected to isometric transducers. Following tissue equilibration and repeated washing (45-60 min.), SP or an appropriate reference agonist is added cumulatively to the bath and contractions of the tissue are recorded. The bath is washed thoroughly and 30-45 min. is allowed to elapse before construction of a second reference agonist curve to assure reproducibility of the responses. Test compounds are similarly evaluated for agonist activity up to a maximum concentration of 10-100 μM. […] When appropriate, relative molar potency ratios are calculated (EC50 reference/ED50 test drug). […] The effects of several concentrations of test antagonist, pooled across separate experiments, provide dose-ratio (EC50 shift) data for a standard Schild plot analysis, with computation of the pA2.

Test [2] deals with T1, SP receptor (Rattus norvegicus, UniProt P14600).
T1 construct: from tissue; host or cells: rat submaxillary gland (crude tissue suspension)
Description: 3H-SP binding test, rat submaxillary gland tissue. The conditions noted are these: for inhibition at 30 µM: read-out: 3H-SP Binding % Inhibition. The protocol: (§1) Crude rat submaxillary gland or brain tissue is suspended in buffer containing protease inhibitors (and calcium ions and magnesium ions in the case of brain tissue) and incubated under nitrogen atmosphere with ^3 H-SP and test compound. The bound SP is then separated from free SP by filtration and quantitated by liquid scintillation spectroscopy. This test meets the criteria of reversibility, saturability, sensitivity to known SP agonists and antagonists, and specificity for an SP receptor binding assay.
(§2) With regard to reversibility, addition of unlabelled SP causes a gradual decrease in bound ^3 H-SP, showing that SP is not irreversibly bound to the receptors in the tissue. With regard to saturability, the amount of bound ^3 H-SP in the preparation increases in direct proportion to the concentration of ^3 H-SP added until a saturation point is reached. […] With regard to sensitivity, known SP agonists and antagonists inhibit ^3 H-SP binding.
(§3) The results are expressed either as percent inhibition at a concentration of 30 micromoles per liter (μM) or as an IC50 calculated as the concentration in micromoles per liter.
(§4) The ^3 H-SP binding test results were obtained using rat submaxillary gland tissue for Examples 1-34 and rat brain tissue for Examples 35-42.

The test system of the next test is rat vas deferens. Description: Rat vas deferens test (SP antagonist effect). To be noted: reversal of potentiation by 10 μM SP of electrically induced contractions. The format is cell-based. The protocol:
Rat vasa deferentia are suspended in organ baths containing warmed, oxygenated Krebs solution and repetitively field-stimulated (0.1 Hz., 1 msec. duration, monophasic pulses) through platinum wire ring electrodes. Rapid, regular contractions of the muscle are recorded via transducers on a Grass polygraph. SP and related tachykinins added to the bath evoke a dose-dependent, stable potentiation of these electrically-induced contractions. For routine screening, a 10 μM concentration of SP is applied to all tissues to produce a 2-6 fold increase in electrically-stimulated twitch height. SP antagonist compounds (1-30 μM) produce an immediate, dose-related reversal of the response of the tissue to SP, which is quantified by determination of an IC50.

Test [3] addresses T1, SP receptor. Kind of test: 3H-SP binding test, rat brain tissue. The conditions noted are these: rat brain tissue (Examples 35-42); for inhibition at 30 µM: 30 μM test compound. The protocol:
as §1, §2, §3, §4

The mark [4] stands for this setting: 30 μM test compound, rat submaxillary gland tissue (Examples 1-34).
Where [5] appears, read: antagonism of reference agonist, Schild plot analysis.

T1 sequence (P14600 whole entry): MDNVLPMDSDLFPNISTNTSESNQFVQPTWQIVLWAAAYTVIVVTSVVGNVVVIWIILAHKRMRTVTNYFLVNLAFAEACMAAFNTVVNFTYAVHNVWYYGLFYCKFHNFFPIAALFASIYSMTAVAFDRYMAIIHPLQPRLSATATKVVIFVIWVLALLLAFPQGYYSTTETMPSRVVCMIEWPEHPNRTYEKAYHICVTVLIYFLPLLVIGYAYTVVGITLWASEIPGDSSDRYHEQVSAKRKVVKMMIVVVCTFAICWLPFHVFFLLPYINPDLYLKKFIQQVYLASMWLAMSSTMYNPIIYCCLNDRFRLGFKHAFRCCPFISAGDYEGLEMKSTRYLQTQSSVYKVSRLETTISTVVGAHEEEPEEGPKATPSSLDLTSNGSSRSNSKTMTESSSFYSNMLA

Take `CSCC[C@H](NC(=O)[C@H](CC(C)C)NC(=O)[C@@H](C)NC(=O)[C@H](Cc1ccccc1)NC(=O)[C@H](Cc1ccccc1)NC(=O)[C@@H]1CCCN1)C(N)=O` [Example 1, HPro-Phe-Phe-DAla-Leu-MetNH2] (H-PFF[dA]LM-NH2): in test [1], the “Guinea Pig Ileum % Agonism (potency relative to SP)” value was 0.7%. Besides, the inhibition at 30 µM on SP receptor [2] (setting [4]) stood at 17%.
For `CSCC[C@H](NC(=O)[C@H](CC(C)C)NC(=O)CN(C)C(=O)[C@H](Cc1ccccc1)NC(=O)[C@H](Cc1ccccc1)NC(=O)[C@@H]1CCCN1)C(N)=O` [Example 3, HPro-Phe-Phe-Sar-Leu-MetNH2] (H-PFF[Sar]LM-NH2), the “Guinea Pig Ileum % Agonism (potency relative to SP)” value in test [1] is 27%. Also, the inhibition at 30 µM on SP receptor [2] (setting [4]) was 93%.
`CSCC[C@H](NC(=O)[C@@H](CC(C)C)NC(=O)CNC(=O)[C@H](Cc1ccccc1)NC(=O)[C@H](Cc1ccccc1)NC(=O)[C@@H]1CCCN1)C(N)=O` [Example 4, HPro-Phe-Phe-Gly-DLeu-MetNH2] (H-PFFG[dL]M-NH2): in test [1], the “Guinea Pig Ileum % Agonism (potency relative to SP)” value was determined as 0.3%. Moreover, the inhibition at 30 µM on SP receptor [2] (setting [4]) was 17%.
Taken in the same sequence, the figures for `CSCC[C@@H](NC(=O)[C@H](CC(C)C)NC(=O)CNC(=O)[C@H](Cc1ccccc1)NC(=O)[C@H](Cc1ccccc1)NC(=O)[C@@H]1CCCN1)C(N)=O` [Example 6, HPro-Phe-Phe-Gly-Leu-DMetNH2] (H-PFFGL[dM]-NH2) were 4% and 8%.
Consider `CSCC[C@H](NC(=O)[C@H](CC(C)C)NC(=O)CNC(=O)[C@@H](Cc1ccccc1)NC(=O)[C@H](Cc1ccccc1)NC(=O)[C@@H]1CCCN1)C(N)=O` [Example 7, HPro-Phe-DPhe-Gly-Leu-MetNH2] (H-PF[dF]GLM-NH2), for which the “Guinea Pig Ileum % Agonism (potency relative to SP)” value in test [1] was 0.7%. Further, the inhibition at 30 µM at SP receptor [2] (setting [4]) was 48%.
Consider `CCCC[C@H](NC(=O)[C@H](CC(C)C)NC(=O)CNC(=O)[C@H](Cc1ccccc1)NC(=O)[C@H](Cc1ccccc1)NC(=O)[C@@H]1CCCN1)C(N)=O` [Example 8, HPro-Phe-Phe-Gly-Leu-NleNH2] (H-PFFGL[Nle]-NH2), for which the “Guinea Pig Ileum % Agonism (potency relative to SP)” value in test [1] is given as 3%. Besides, the inhibition at 30 µM at SP receptor [2] (setting [4]) came to 49%.
On to `CSCC[C@H](NC(=O)[C@H](CC(C)C)NC(=O)CNC(=O)[C@H](Cc1ccccc1)NC(=O)[C@@H](Cc1ccccc1)NC(=O)[C@@H]1CCCN1)C(N)=O` [Example 9, HPro-DPhe-Phe-Gly-Leu-MetNH2] (H-P[dF]FGLM-NH2), for which, in test [1], the “Guinea Pig Ileum pA2” value worked out at 5.6 and the “Guinea Pig Ileum % Agonism (potency relative to SP)” value is listed as 0.0009%. Moreover, at SP receptor [2] (setting [4]), the inhibition at 30 µM came out at 22%.
On to `CSCC[C@H](NC(=O)[C@H](CC(C)C)NC(=O)CNC(=O)[C@H](Cc1ccccc1)NC(=O)[C@H](Cc1ccccc1)NC(=O)[C@H]1CCCN1)C(N)=O` [Example 10, HDPro-Phe-Phe-Gly-Leu-MetNH2] (H-[dP]FFGLM-NH2), for which the “Guinea Pig Ileum % Agonism (potency relative to SP)” value in test [1] was found to be 10%. Also, the inhibition at 30 µM at SP receptor [2] (setting [4]) was found to be 65%.
As to `CSCC[C@H](NC(=O)[C@H](CC(C)C)NC(=O)[C@H](CCC(=O)O)NC(=O)[C@H](Cc1ccccc1)NC(=O)[C@H](Cc1ccccc1)NC(=O)[C@@H]1CCCN1)C(N)=O` [Example 15, HPro-Phe-Phe-Glu-Leu-MetNH2] (H-PFFELM-NH2), the “Guinea Pig Ileum % Agonism (potency relative to SP)” value in test [1] is recorded as 0.004%. Moreover, the inhibition at 30 µM on SP receptor [2] (setting [4]) amounted to 10%.
For `CSCC[C@H](NC(=O)[C@H](CC(C)C)NC(=O)[C@@H](Cc1ccccc1)NC(=O)[C@H](CCc1ccccc1)NC(=O)[C@@H](Cc1ccccc1)NC(=O)[C@@H]1CCCN1)C(N)=O` [Example 29, HPro-DPhe-Hfe-DPhe-Leu-MetNH2] (H-P[dF][hPhe][dF]LM-NH2), in the test with rat vas deferens, the IC50 is over 40 µM. Also, the inhibition at 30 µM on SP receptor [2] was 64%.
Taken in the same sequence, the figures for `CCCC[C@H](NC(=O)[C@H](CC(C)C)NC(=O)[C@@H](Cc1ccccc1)NC(=O)[C@H](Cc1ccccc1)NC(=O)[C@@H](Cc1ccccc1)NC(=O)[C@@H]1CCCN1)C(N)=O` [Example 31, HPro-DPhe-Phe-DPhe-Leu-NleNH2] (H-P[dF]F[dF]L[Nle]-NH2) were 30 µM and 47%.
Take `CSCC[C@H](NC(=O)[C@H](CC(C)C)NC(=O)[C@@H](CCCNC(=N)N)NC(=O)[C@H](Cc1ccccc1)NC(=O)[C@@H](Cc1c[nH]c2ccccc12)NC(=O)[C@@H]1CCCN1)C(N)=O` [Example 34, HPro-DTrp-Phe-DArg-Leu-MetNH2] (H-P[dW]F[dR]LM-NH2): the “Guinea Pig Ileum % Agonism (potency relative to SP)” value in test [1] turned out to be 5.2%. At SP receptor [2] (setting [4]), the inhibition at 30 µM was 20%.
Regarding `CSCC[C@H](NC(=O)[C@H](CC(C)C)N(C)C(=O)[C@@H](Cc1c[nH]c2ccccc12)NC(=O)[C@H](Cc1ccccc1)NC(=O)[C@@H](Cc1c[nH]c2ccccc12)NC(=O)[C@@H]1CCCN1)C(N)=O` [Example 35, HPro-DTrp-Phe-DTrp-MeLeu-MetNH2] (H-P[dW]F[dW][NMeL]M-NH2), the “Guinea Pig Ileum pA2” value in test [1] (setting [5]) was found to be 6.3. In addition, on SP receptor [3], 30 µM produced 46% inhibition and the IC50 was determined as 43.6 µM.
Regarding `CSCC[C@@H](C(N)=O)N(C)C(=O)[C@H](CC(C)C)NC(=O)[C@@H](Cc1c[nH]c2ccccc12)NC(=O)[C@H](Cc1ccccc1)NC(=O)[C@@H](Cc1c[nH]c2ccccc12)NC(=O)[C@@H]1CCCN1` [Example 36, HPro-DTrp-Phe-DTrp-Leu-MeMetNH2] (H-P[dW]F[dW]L[NMeM]-NH2), the “Guinea Pig Ileum pA2” value in test [1] (setting [5]) turned out to be 6.3. On SP receptor [3], the inhibition at 30 µM was determined as 82% and the IC50 is 11.5 µM.
As to `CSCC[C@H](NC(=O)[C@H](CC(C)C)NC(=O)CNC(=O)[C@H](Cc1ccc(Cl)cc1)NC(=O)[C@H](Cc1ccc(Cl)cc1)NC(=O)[C@@H]1CCCN1)C(N)=O` [Example 37, HPro-Pcp-Pcp-Gly-Leu-MetNH2] (H-P[Phe(4-Cl)][Phe(4-Cl)]GLM-NH2), the inhibition at 30 µM at SP receptor [3] was 62%.
The same measure, in the same setting: the figure for `CSCC[C@H](NC(=O)[C@H](CC(C)C)NC(=O)[C@@H](Cc1c[nH]c2ccccc12)NC(=O)[C@H](Cc1ccccc1)N(C)C(=O)[C@@H](Cc1c[nH]c2ccccc12)NC(=O)[C@@H]1CCCN1)C(N)=O` [Example 38, HPro-DTrp-MePhe-DTrp-Leu-MetNH2] (H-P[dW][NMeF][dW]LM-NH2) is 68%; for `CSCC[C@H](NC(=O)[C@H](CC(C)C)NC(=O)[C@@H](Cc1c[nH]c2ccccc12)NC(=O)CNC(=O)[C@@H](Cc1c[nH]c2ccccc12)NC(=O)[C@@H]1CCCN1)C(N)=O` [Example 39, HPro-DTrp-Gly-DTrp-Leu-MetNH2] (H-P[dW]G[dW]LM-NH2) it is 46%; for `CSCC[C@H](NC(=O)[C@H](CC(C)C)NC(=O)CNC(=O)[C@H](Cc1ccccc1)NC(=O)[C@H](Cc1ccccc1)N(C)C(=O)[C@@H]1CCCN1)C(N)=O` [Example 40, HPro-MePhe-Phe-Gly-Leu-MetNH2] (H-P[NMeF]FGLM-NH2) it is 9%.
At SP receptor [3], `CSCC[C@H](NC(=O)[C@H](CC(C)C)NC(=O)[C@@H](Cc1c[nH]c2ccccc12)N(C)C(=O)[C@H](Cc1ccccc1)NC(=O)[C@@H](Cc1c[nH]c2ccccc12)NC(=O)[C@@H]1CCCN1)C(N)=O` [Example 41, HPro-DTrp-Phe-MeDTrp-Leu-MetNH2] (H-P[dW]F[dNMeW]LM-NH2) had an inhibition at 30 µM of 79% and an IC50 of 13.3 µM.
On SP receptor [3], `CCCC[C@@H](C(N)=O)N(C)C(=O)[C@H](CC(C)C)NC(=O)[C@@H](Cc1c[nH]c2ccccc12)NC(=O)[C@H](Cc1ccccc1)NC(=O)[C@@H](Cc1c[nH]c2ccccc12)NC(=O)[C@@H]1CCCN1` [Example 42, HPro-DTrp-Phe-DTrp-Leu-MeNleNH2] (H-P[dW]F[dW]L[NMeNle]-NH2) displayed an inhibition at 30 µM of 81%.
Consider “HPro-Phe-D,LBpa-Gly-Leu-MetNH2 [Example 18]”, for which the “Guinea Pig Ileum % Agonism (potency relative to SP)” value in test [1] is 33%. Also, the “3H-SP Binding % Inhibition” value on SP receptor [2] (setting [4]) was 90%.
